Results on 14 compounds are retold here after patent US9481676B2, “Azepino[4,5-B]indoles and methods of use” (Medivation Technologies, Inc., priority 2008, dated 2016).

Test [1] deals with T1, human recombinant adrenergic α2B receptor (Homo sapiens, UniProt P18089).
T1 construct: expressed in transfected cells; host or cells: CHO-K1 cells
T1 sequence (P18089 1-450): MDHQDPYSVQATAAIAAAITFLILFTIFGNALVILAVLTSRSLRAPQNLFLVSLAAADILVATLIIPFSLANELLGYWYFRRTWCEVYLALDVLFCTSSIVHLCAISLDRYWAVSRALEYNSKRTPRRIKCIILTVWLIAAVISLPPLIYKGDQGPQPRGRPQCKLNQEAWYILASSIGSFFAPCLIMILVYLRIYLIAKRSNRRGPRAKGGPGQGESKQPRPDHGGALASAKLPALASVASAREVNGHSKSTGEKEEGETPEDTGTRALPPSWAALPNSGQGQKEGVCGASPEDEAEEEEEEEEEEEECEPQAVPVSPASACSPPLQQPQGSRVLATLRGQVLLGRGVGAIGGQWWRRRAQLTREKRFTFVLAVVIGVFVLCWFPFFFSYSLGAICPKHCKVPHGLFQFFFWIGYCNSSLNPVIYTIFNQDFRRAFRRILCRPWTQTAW
The test can be described thus: Adrenergic alpha2B radioligand binding ([3H]Rauwolscine). The note with it: compound at 1 μM; read-out: Adrenergic (1 μM) α2B, percent inhibition of specific binding. Summed up: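 CHO-K1-expressed receptor in Tris-HCl pH 7.4 with MgCl2, EDTA, BSA, incubated 60 min at 25° C with 2.5 nM [3H]Rauwolscine; 10 μM prazosin defines non-specific binding.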

In test [2] the target is T2, human recombinant serotonin (5-Hydroxytryptamine) 5-HT2A receptor (Homo sapiens, UniProt P28223).
T2 construct: expressed in transfected cells; host or cells: CHO-K1 cells
T2 sequence (P28223 whole entry): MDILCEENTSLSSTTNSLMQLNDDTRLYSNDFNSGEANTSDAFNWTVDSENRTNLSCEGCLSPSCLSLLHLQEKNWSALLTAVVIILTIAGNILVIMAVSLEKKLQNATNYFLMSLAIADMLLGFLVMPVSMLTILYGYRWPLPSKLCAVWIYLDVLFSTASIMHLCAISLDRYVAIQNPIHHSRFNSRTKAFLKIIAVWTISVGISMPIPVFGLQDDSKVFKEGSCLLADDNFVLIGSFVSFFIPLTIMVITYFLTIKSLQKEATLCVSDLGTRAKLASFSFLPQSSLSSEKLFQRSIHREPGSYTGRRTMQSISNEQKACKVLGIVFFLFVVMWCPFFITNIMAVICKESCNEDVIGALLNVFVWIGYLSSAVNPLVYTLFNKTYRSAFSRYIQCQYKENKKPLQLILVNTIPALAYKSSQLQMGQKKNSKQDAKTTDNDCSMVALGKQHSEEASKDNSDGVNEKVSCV
As to the kind of experiment: Serotonin 5-HT2A radioligand binding ([3H]Ketanserin). The note with it: compound at 1 μM; read-out: Serotonin (1 μM) 5-HT2A, percent inhibition of specific binding. The essentials: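 Percent inhibition of specific [3H]ketanserin (0.5 nM) binding, filtration read-out, with compounds at ≤1 μM (1% DMSO vehicle). Receptor source: recombinant human 5-HT2A in CHO-K1 cells, 50 mM Tris-HCl pH 7.4, 60 min, 25 °C; 1 μM mianserin gives nonspecific binding.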

Test [3] concerns the target T3, human recombinant adrenergic α2A receptor (Homo sapiens, UniProt P08913).
T3 construct: expressed in transfected cells; host or cells: insect Sf9 cells
T3 sequence (P08913 1-465): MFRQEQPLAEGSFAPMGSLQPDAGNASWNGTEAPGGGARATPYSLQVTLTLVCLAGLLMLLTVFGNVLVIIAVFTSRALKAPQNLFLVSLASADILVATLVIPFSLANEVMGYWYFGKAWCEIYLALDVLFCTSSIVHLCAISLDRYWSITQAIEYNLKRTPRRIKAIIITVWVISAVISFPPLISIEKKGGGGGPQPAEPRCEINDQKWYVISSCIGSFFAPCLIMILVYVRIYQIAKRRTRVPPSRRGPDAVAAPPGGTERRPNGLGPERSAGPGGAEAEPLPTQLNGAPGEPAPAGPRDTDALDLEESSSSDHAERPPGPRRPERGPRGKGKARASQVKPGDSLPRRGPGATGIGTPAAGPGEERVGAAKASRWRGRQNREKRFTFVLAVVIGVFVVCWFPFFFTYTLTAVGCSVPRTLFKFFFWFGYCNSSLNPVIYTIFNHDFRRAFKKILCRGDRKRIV
As to the kind of experiment: Adrenergic alpha2A radioligand binding ([3H]MK-912). The note with it: compound at 1 μM; read-out: Adrenergic (1 μM) α2A, percent inhibition of specific binding. The essentials: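 Membranes of Sf9 cells expressing human recombinant α2A receptor were incubated with compound and 1 nM [3H]MK-912 for 60 min at 25 °C in 50 mM Tris-HCl pH 7.4, 12.5 mM MgCl2, 2 mM EDTA. Nonspecific binding: 10 μM WB-4101.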

Test [4] addresses T4, human recombinant dopamine D2L receptor (Homo sapiens, UniProt P14416).
T4 construct: expressed in transfected cells; host or cells: CHO cells
The test can be described thus: Dopamine D2L radioligand binding ([3H]Spiperone). The conditions noted are these: compound at 1 μM; read-out: Dopamine (1 μM) D2L, percent inhibition of specific binding. The essentials: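 Binding measured by filtration and counting, reported as % inhibition of specific [3H]spiperone binding (0.16 nM tracer; 10 μM haloperidol for nonspecific). Compounds tested at ≤1 μM in 1% DMSO for 120 min at 25° C against CHO-expressed human D2L in pH 7.4 Tris-HCl buffer.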

By inhibition is commonly meant the change of the read-out against control, counted positive when it falls.

T4 sequence (P14416 whole entry): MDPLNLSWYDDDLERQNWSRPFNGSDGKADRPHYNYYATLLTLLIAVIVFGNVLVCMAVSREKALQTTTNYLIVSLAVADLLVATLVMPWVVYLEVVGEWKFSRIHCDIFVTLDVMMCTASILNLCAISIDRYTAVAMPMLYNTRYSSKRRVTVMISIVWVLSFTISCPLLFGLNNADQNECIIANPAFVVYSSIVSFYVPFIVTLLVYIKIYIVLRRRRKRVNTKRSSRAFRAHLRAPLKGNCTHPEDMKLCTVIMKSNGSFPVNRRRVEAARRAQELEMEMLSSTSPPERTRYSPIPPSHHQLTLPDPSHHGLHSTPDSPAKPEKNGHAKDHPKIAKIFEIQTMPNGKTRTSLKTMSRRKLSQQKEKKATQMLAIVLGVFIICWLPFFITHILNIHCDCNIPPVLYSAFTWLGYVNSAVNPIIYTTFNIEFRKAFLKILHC

Turning to `Cc1ccc2c(c1)c1c(n2CC(=O)NC2CCCCC2)CCN(C)CC1` [Compound No. 22, N-cyclohexyl-2-(2,3,4,5-tetrahydro-3,9-dimethylazepino[4,5-b]indol-6(1H)-yl)acetamide], the inhibition at 1 µM in test [1] was -7%; in test [2], -2%; in test [3], -14%; in test [4], 0%.
For the compound `Cc1ccc2c(c1)c1c(n2CC(=O)OC2CCCC2)CCN(C)CC1` [Compound No. 55, Cyclopentyl-2-(2,3,4,5-tetrahydro-3,9-dimethylazepino[4,5-b]indol-6(1H)-yl)acetate], the inhibition at 1 µM is 7% in test [1], -2% in test [2], 12% in test [3] and 6% in test [4].
The matching figures for `CN1CCc2c(n(CC(=O)N3CCOCC3)c3ccc(Cl)cc23)CC1` [Compound No. 60, 2-(9-chloro-2,3,4,5-tetrahydro-3-methylazepino[4,5-b]indol-6(1H)-yl)-1-morpholinoethanone]: 53%, -7%, 7% and -9%.
The matching figures for `Cc1ccc2c(c1)c1c(n2CCc2ccc(C(F)(F)F)nc2)CCN(C)CC1` [Compound No. 20, 6-(2-(6-(trifluoromethyl)pyridin-3-yl)ethyl)-1,2,3,4,5,6-hexahydro-3,9-dimethylazepino[4,5-b]indole]: 88%, 95%, 68% and 13%.
With `CN1CCc2c(n(CCc3cncc(Cl)c3)c3ccc(Cl)cc23)CC1` [Compound No. 10, 9-chloro-6-(2-(5-chloropyridin-3-yl)ethyl)-1,2,3,4,5,6-hexahydro-3-methylazepino[4,5-b]indole], the inhibition at 1 µM was 101% in test [1], 94% in test [2], 96% in test [3] and 35% in test [4].
In the case of `Cc1ccc2c(c1)c1c(n2CC(=O)N2CCCC2)CCN(C)CC1` [Compound No. 45, 2-(2,3,4,5-tetrahydro-3,9-dimethylazepino[4,5-b]indol-6(1H)-yl)-1-(pyrrolidin-1-yl)ethanone], the inhibition at 1 µM is 9% in test [1], 22% in test [2], -9% in test [3] and -6% in test [4].
With `Cc1ccc2c(c1)c1c(n2CCc2ccc(C(=O)O)nc2)CCN(C)CC1` [Compound No. 11, 5-(2-(2,3,4,5-tetrahydro-3,9-dimethylazepino[4,5-b]indol-6(1H)-yl)ethyl)pyridine-2-carboxylic acid], the inhibition at 1 µM in test [1] was 3%; in test [2], 5%; in test [3], 1%; in test [4], -11%.
The matching figures for `CN1CCc2c(n(C#Cc3ccc(F)cc3)c3ccc(Cl)cc23)CC1` [Compound No. 281, 9-chloro-6-((4-fluorophenyl)ethynyl)-3-methyl-1,2,3,4,5,6-hexahydroazepino[4,5-b]indole]: 99%, 100%, 92% and 40%.
The matching figures for `CN1CCc2c(n(CC(=O)N3CCCC3)c3ccc(Cl)cc23)CC1` [Compound No. 53, 2-(9-chloro-2,3,4,5-tetrahydro-3-methylazepino[4,5-b]indol-6(1H)-yl)-1-(pyrrolidin-1-yl)ethanone]: 3%, 41%, 1% and 2%.
Consider `CN1CCc2c(n(CC(O)c3ccncc3)c3ccc(Cl)cc23)CC1` (centres unmarked) [Compound No. 42, 2-(9-chloro-2,3,4,5-tetrahydro-3-methylazepino[4,5-b]indol-6(1H)-yl)-1-(pyridin-4-yl)ethanol], for which the inhibition at 1 µM in test [1] was found to be 107%; in test [2], 95%; in test [3], 87%; in test [4], 8%.
The like results for `COc1ccc(C(O)Cn2c3c(c4cc(Cl)ccc42)CCN(C)CC3)cc1F` (centres unmarked) [Compound No. 67, 2-(9-chloro-2,3,4,5-tetrahydro-3-methylazepino[4,5-b]indol-6(1H)-yl)-1-(3-fluoro-4-methoxyphenyl) ethanol] were, in that order, 99%, 100%, 102% and 50%.
As for `CN1CCc2c(n(/C=C/c3ccc(F)c(F)c3)c3ccc(Cl)cc23)CC1` [Compound No. 236, (E)-9-chloro-6-(3,4-difluorostyryl)-3-methyl-1,2,3,4,5,6-hexahydroazepino[4,5-b]indole], the inhibition at 1 µM in test [1] amounted to 103%; in test [2] it was 101%; in test [3], 89%; in test [4], 34%.
The like results for `COc1ccc(/C=C/n2c3c(c4cc(C)ccc42)CCN(C)CC3)c(F)c1` [Compound No. 230, (E)-6-(2-fluoro-4-methoxystyryl)-3,9-dimethyl-1,2,3,4,5,6-hexahydroazepino[4,5-b]indole] were, in that order, 99%, 97%, 102% and 48%.
Consider `Cc1ccc2c(c1)c1c(n2CC(=O)N2CCCCC2)CCN(C)CC1` [Compound No. 32, 2-(2,3,4,5-tetrahydro-3,9-dimethylazepino[4,5-b]indol-6(1H)-yl)-1-(piperidin-1-yl)ethanone], for which the inhibition at 1 µM in test [1] is 22%; in test [2] it was 60%; in test [3] it was 39%; in test [4], -1%.
